ChEMBL document CHEMBL1156487, “Proximity-accelerated chemical coupling reaction in the benzodiazepine-binding site of gamma-aminobutyric acid type A receptors: superposition of different allosteric modulators” (J Biol Chem, 2007)
Activity calls are given as the source filed them. The calls are words filed in the database; no cut-off is given here.

What was measured:
[1] = tested on: Oocyte; test: (§1) Activity at rat […] GABAA alpha-1G157Cbeta-2-gamma-2 mutant receptor expressed in xenopus oocytes assessed as GABA-elicited response by two electrode voltage clamp method relative to control; format: cell-based
[2] = as §1; format: cell-based; conditions: Oocyte
[3] = tested on: Oocyte; test: (§2) Activity at rat […] GABAA alpha-1V211Cbeta-2-gamma-2 mutant receptor expressed in xenopus oocytes assessed as GABA-elicited response by two electrode voltage clamp method relative to control; format: cell-based
[4] = as §2; format: cell-based; conditions: Oocyte
[5] = tested on: Oocyte; test: (§3) Activity at rat […] GABAA alpha-1H101Cbeta-2-gamma-2 mutant receptor expressed in xenopus oocytes assessed as GABA-elicited response by two electrode voltage clamp method relative to control; format: cell-based
[6] = as §3; format: cell-based; conditions: Oocyte
[7] = tested on: Oocyte; test: (§4) Activity at rat […] GABAA alpha-1V202Cbeta-2-gamma-2 mutant receptor expressed in xenopus oocytes assessed as GABA-elicited response by two electrode voltage clamp method relative to control; format: cell-based
[8] = tested on: Oocyte; test: Activity at rat GABAA alpha-1H101Cbeta-2-gamma-2 mutant receptor expressed in xenopus oocytes assessed as change in GABA-induced current amplitude first phase stimulation at 3 uM by two electrode voltage clamp method; format: cell-based
[9] = tested on: HEK293; test: Displacement of [3H]Ro15-1788 from rat GABAA alpha-1H101Cbeta-2-gamma-2 mutant receptor expressed in HEK293 cells assessed as residual binding at 10 nM after 1 hr by liquid scintillation counting in presence of flunitrazepam; format: cell-based
[10] = tested on: HEK293; test: Displacement of [3H]Ro15-1788 from rat GABAA alpha-1V211Cbeta-2-gamma-2 mutant receptor expressed in HEK293 cells assessed as residual binding at 100 nM after 1 hr by liquid scintillation counting; format: cell-based
[11] = tested on: HEK293; test: Displacement of [3H]Ro15-1788 from rat GABAA alpha-1H101Cbeta-2-gamma-2 mutant receptor expressed in HEK293 cells assessed as residual binding after pretreatment of L-cysteine at 30 nM after 1 hr by liquid scintillation counting; format: cell-based
[12] = tested on: HEK293; test: Displacement of [3H]Ro15-1788 from rat GABAA alpha-1H101Cbeta-2-gamma-2 mutant receptor expressed in HEK293 cells assessed as residual binding at 10 nM after 1 hr by liquid scintillation counting in presence of Ro15-1788; format: cell-based
[13] = tested on: Oocyte; test: Activity at rat GABAA alpha-1G157Cbeta-2-gamma-2 mutant receptor expressed in xenopus oocytes assessed as change in GABA-induced current amplitude at 1 uM after 1 min exposure to GABA by two electrode voltage clamp method; format: cell-based
[14] = tested on: HEK293; test: Displacement of [3H]Ro15-1788 from rat GABAA alpha-1H101Cbeta-2-gamma-2 mutant receptor expressed in HEK293 cells assessed as residual binding at 10 nM after 1 hr by liquid scintillation counting; format: cell-based
[15] = target: T1, Gamma-aminobutyric acid receptor subunit alpha-1 (Homo sapiens) (UniProt P14867); conditions: Rattus norvegicus; Oocyte; 10 uM
T1 sequence (whole entry): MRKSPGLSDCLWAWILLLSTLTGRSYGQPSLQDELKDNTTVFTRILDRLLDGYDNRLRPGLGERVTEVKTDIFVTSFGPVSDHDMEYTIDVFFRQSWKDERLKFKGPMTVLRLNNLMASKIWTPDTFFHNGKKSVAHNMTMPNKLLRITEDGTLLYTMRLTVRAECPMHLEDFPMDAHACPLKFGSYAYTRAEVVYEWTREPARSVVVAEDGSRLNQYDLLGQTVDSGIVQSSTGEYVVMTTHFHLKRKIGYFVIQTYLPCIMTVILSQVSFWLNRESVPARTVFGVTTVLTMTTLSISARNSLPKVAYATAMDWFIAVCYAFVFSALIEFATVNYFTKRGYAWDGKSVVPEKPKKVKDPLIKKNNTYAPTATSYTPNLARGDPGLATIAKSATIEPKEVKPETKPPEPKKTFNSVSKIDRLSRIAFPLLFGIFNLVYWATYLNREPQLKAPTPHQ
Description: Activity at rat wild type GABAA alpha-1-beta-2-gamma-2 receptor expressed in xenopus oocytes assessed as change in GABA-induced current amplitude at 10 uM after 5 min by two electrode voltage clamp method

[16] = target: T1, Gamma-aminobutyric acid receptor subunit alpha-1 (Homo sapiens); conditions: Rattus norvegicus; Oocyte; 1 uM
Description: Activity at rat wild type GABAA alpha-1-beta-2-gamma-2 receptor expressed in xenopus oocytes assessed as change in GABA-induced current amplitude at 1 uM after 1 min exposure to GABA by two electrode voltage clamp method

[17] = target: T1, Gamma-aminobutyric acid receptor subunit alpha-1 (Homo sapiens); conditions: Rattus norvegicus; Oocyte; 1 uM; remark: listed apart in the source
Description: Activity at rat wild type GABAA alpha-1-beta-2-gamma-2 receptor expressed in xenopus oocytes assessed as change in GABA-induced current amplitude at 1 uM after 5 min exposure to GABA by two electrode voltage clamp method

[18] = tested on: Oocyte; test: Activity at rat GABAA alpha-1H101Cbeta-2-gamma-2 mutant receptor expressed in xenopus oocytes assessed as change in GABA-induced current amplitude at 500 nM by two electrode voltage clamp method in presence of L-cysteine; format: cell-based
[19] = Displacement of [3H]Ro15-1788 from rat GABAA alpha-1-beta-2-gamma-2S receptor expressed in HEK293 cells by liquid scintillation counting; format: cell-based
[20] = tested on: HEK293; test: Displacement of [3H]Ro15-1788 from rat GABAA alpha-1H101Cbeta-2-gamma-2 mutant receptor expressed in HEK293 cells assessed as residual binding without pretreatment of L-cysteine at 30 nM after 1 hr by liquid scintillation counting; format: cell-based
[21] = as §4; format: cell-based; conditions: Oocyte
[22] = tested on: Oocyte; test: Activity at rat GABAA alpha-1H101Cbeta-2-gamma-2 mutant receptor expressed in xenopus oocytes assessed as change in GABA-induced current amplitude at 10 nM to 1 uM after 1 min exposure to GABA by two electrode voltage clamp method; format: cell-based
[23] = tested on: Oocyte; test: Activity at rat GABAA alpha-1V211Cbeta-2-gamma-2 mutant receptor expressed in xenopus oocytes assessed as change in GABA-induced current amplitude at 1 uM after 1 min exposure to GABA by two electrode voltage clamp method; format: cell-based
[24] = tested on: HEK293; test: Displacement of [3H]Ro15-1788 from rat GABAA alpha-1V202Cbeta-2-gamma-2 mutant receptor expressed in HEK293 cells assessed as residual binding at 100 nM after 1 hr by liquid scintillation counting; format: cell-based
[25] = tested on: Oocyte; test: Activity at rat GABAA alpha-1V202Cbeta-2-gamma-2 mutant receptor expressed in xenopus oocytes assessed as change in GABA-induced current amplitude at 1 uM after 1 min exposure to GABA by two electrode voltage clamp method; format: cell-based
[26] = Displacement of [3H]Ro15-1788 from rat GABAA alpha-1H101Cbeta-2-gamma-2 mutant receptor expressed in HEK293 cells after 1 hr assessed as residual binding by liquid scintillation counting; format: cell-based
[27] = tested on: HEK293; test: Displacement of [3H]Ro15-1788 from rat GABAA alpha-1H101Cbeta-2-gamma-2 mutant receptor expressed in HEK293 cells assessed as residual binding at 100 nM after 1 hr by liquid scintillation counting; format: cell-based
[28] = tested on: Oocyte; test: Activity at rat GABAA alpha-1H101Cbeta-2-gamma-2 mutant receptor expressed in xenopus oocytes assessed as change in GABA-induced current amplitude second phase stimulation at 3 uM by two electrode voltage clamp method; format: cell-based
[29] = tested on: HEK293; test: Displacement of [3H]Ro15-1788 from rat GABAA alpha-1G157Cbeta-2-gamma-2 mutant receptor expressed in HEK293 cells assessed as residual binding at 100 nM after 1 hr by liquid scintillation counting; format: cell-based
[30] = tested on: Oocyte; test: Activity at rat GABAA alpha-1H101Cbeta-2-gamma-2 mutant receptor expressed in xenopus oocytes assessed as change in GABA-induced current amplitude at 10 uM after 1 min exposure to GABA by two electrode voltage clamp method; format: cell-based
[31] = tested on: Oocyte; test: Activity at rat GABAA alpha-1H101Cbeta-2-gamma-2 mutant receptor expressed in xenopus oocytes assessed as change in GABA-induced current amplitude at 1 uM after 1 min exposure to GABA by two electrode voltage clamp method; format: cell-based

`CCOC(=O)c1ncn2c1CN(C)C(=O)c1cc(N=[N+]=[N-])ccc1-2` [Ro-154513] gave a max activation [1] of 36%, an EC50 [2] of 32 nM and a max activation [3] of -23%. The EC50 [4] was 44 nM, the max activation [5] was 40% and the EC50 [6] was 17 nM. It also gave a max activation [7] of 9%.
For `CCOC(=O)c1ncn2c1CN(C)C(=O)c1cc(N=C=S)ccc1-2`, the max activation [1] was 30%, the EC50 [2] was 34 nM and the inhibition [8] was 53%. The Activity [9] was 64%, the Activity [10] was 50% and the max activation [3] was > 140%. For the same molecule, the EC50 [4] was > 2000 nM, the Activity [11] was 82% and the Activity [12] was 73%. The inhibition [13] was 88%, the Activity [14] was 29% and the inhibition [15] was 8%. The inhibition [16] was 3%, the inhibition [17] was 4% and the Activity [18] was “Active”. The Ki [19] was 10 nM, the Activity [20] was 18% and the max activation [5] was 90%. The EC50 [6] was 17 nM, the max activation [7] was 16% and the EC50 [21] was 668 nM. For the same molecule, the Activity [22] was 362 nM, the inhibition [23] was 5% and the Activity [24] was 50%. It also gave an inhibition [25] of 71%, a Kd [26] of 0.9 nM and an Activity [27] of 85%. It also gave an inhibition [28] of 47% and an Activity [29] of 50%.
`Cc1ccc(-c2nc3ccc(C)cn3c2CC(=O)N(C)C)cc1` [ZOLPIDEM] gave a max activation [1] of 427%, an EC50 [2] of 2630 nM and an inhibition [30] of 96%. The max activation [3] was 127%, the EC50 [4] was 341 nM and the max activation [5] was 162%. The EC50 [6] was 1180 nM, the max activation [7] was 369% and the EC50 [21] was 2750 nM.
Molecule `CCOC(=O)c1ncn2c1CN(C)C(=O)c1cc(F)ccc1-2` [FLUMAZENIL] has a max activation [1] of -2%, a max activation [3] of 5% and a max activation [5] of 22%. It also gave an EC50 [6] of 30 nM, a max activation [7] of 1% and an inhibition [31] of 22%.
